Assays:
Type in all cases: binding
[1] = target: T1, SW480 colon carcinoma cells lysate proteins (Homo sapiens, UniProt Q96FQ6); conditions: PreyGene S100A16; SW480 cells
T1 sequence (Q96FQ6 1-103): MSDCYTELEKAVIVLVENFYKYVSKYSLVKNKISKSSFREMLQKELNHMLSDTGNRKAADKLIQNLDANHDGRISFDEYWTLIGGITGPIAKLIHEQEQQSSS

[2] = target: T2, SW480 colon carcinoma cells lysate proteins (Homo sapiens, UniProt Q15785); conditions: PreyGene TOMM34
T2 sequence (Q15785 1-309): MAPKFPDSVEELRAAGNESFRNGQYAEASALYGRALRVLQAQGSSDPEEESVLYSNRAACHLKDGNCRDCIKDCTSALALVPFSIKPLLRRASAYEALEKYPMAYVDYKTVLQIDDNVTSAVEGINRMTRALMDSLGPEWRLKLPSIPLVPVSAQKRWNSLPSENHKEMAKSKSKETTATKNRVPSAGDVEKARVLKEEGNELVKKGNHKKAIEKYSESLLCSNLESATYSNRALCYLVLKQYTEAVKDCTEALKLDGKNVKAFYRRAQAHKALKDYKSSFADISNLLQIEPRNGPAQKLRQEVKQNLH

[3] = target: SW480 colon carcinoma cells lysate proteins (Homo sapiens, UniProt Q9NZI8); conditions: PreyGene IGF2BP1; SW480 cells
[4] = target: SW480 colon carcinoma cells lysate proteins (Homo sapiens, UniProt P22626); conditions: PreyGene HNRNPA2B1
[5] = target: T3, SW480 colon carcinoma cells lysate proteins (Homo sapiens, UniProt P14174); conditions: PreyGene MIF
T3 sequence (P14174 1-115): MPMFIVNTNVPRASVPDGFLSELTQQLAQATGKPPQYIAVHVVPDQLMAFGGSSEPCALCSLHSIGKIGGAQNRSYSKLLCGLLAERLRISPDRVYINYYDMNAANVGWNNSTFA

[6] = target: T4, SW480 colon carcinoma cells lysate proteins (Homo sapiens, UniProt Q14444); conditions: PreyGene CAPRIN1
T4 sequence (Q14444 1-709): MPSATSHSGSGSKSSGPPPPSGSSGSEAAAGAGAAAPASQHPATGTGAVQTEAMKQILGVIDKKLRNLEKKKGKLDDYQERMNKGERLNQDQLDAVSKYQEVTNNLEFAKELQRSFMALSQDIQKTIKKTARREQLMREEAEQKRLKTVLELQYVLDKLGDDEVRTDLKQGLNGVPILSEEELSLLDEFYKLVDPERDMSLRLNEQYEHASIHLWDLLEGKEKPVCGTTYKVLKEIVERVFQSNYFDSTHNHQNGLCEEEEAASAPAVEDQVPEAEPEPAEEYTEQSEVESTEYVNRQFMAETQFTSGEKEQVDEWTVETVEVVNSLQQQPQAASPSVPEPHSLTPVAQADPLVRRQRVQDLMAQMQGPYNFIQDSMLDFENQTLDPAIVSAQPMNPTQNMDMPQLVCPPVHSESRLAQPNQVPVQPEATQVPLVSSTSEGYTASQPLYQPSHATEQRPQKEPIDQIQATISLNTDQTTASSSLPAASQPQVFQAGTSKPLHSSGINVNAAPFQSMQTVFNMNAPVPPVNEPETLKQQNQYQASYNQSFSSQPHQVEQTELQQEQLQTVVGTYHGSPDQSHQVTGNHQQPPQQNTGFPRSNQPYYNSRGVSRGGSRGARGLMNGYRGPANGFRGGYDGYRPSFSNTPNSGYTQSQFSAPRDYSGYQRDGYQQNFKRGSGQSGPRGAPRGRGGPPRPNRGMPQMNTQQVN

[7] = target: SW480 colon carcinoma cells lysate proteins (Homo sapiens, UniProt Q14315); conditions: PreyGene FLNC; SW480 cells
[8] = target: T5, SW480 colon carcinoma cells lysate proteins (Homo sapiens, UniProt Q99497); conditions: PreyGene PARK7
T5 sequence (Q99497 1-189): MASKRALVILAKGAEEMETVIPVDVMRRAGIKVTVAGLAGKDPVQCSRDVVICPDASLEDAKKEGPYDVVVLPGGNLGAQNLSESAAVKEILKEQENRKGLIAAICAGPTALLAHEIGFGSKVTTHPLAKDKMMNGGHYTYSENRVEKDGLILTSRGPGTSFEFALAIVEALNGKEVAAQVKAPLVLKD

[9] = target: SW480 colon carcinoma cells lysate proteins (Homo sapiens, UniProt O00571); conditions: PreyGene DDX3X
[10] = target: SW480 colon carcinoma cells lysate proteins (Homo sapiens, UniProt Q13885); conditions: PreyGene TUBB2A; SW480 cells
Chain of SW480 colon carcinoma cells lysate proteins (Homo sapiens, UniProt Q13885) (Q13885 whole entry): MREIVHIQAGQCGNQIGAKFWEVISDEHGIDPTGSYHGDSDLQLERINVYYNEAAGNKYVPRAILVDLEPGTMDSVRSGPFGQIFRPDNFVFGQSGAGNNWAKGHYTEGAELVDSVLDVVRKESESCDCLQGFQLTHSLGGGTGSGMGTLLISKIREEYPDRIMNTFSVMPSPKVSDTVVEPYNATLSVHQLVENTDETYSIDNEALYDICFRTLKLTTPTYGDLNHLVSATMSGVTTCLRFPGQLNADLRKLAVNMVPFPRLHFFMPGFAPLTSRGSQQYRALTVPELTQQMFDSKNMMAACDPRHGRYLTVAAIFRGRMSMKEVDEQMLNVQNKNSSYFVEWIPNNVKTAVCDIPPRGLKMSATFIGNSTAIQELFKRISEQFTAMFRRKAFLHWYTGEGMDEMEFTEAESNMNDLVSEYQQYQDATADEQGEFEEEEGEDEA

Chain of SW480 colon carcinoma cells lysate proteins (Homo sapiens, UniProt Q14315) (Q14315 whole entry): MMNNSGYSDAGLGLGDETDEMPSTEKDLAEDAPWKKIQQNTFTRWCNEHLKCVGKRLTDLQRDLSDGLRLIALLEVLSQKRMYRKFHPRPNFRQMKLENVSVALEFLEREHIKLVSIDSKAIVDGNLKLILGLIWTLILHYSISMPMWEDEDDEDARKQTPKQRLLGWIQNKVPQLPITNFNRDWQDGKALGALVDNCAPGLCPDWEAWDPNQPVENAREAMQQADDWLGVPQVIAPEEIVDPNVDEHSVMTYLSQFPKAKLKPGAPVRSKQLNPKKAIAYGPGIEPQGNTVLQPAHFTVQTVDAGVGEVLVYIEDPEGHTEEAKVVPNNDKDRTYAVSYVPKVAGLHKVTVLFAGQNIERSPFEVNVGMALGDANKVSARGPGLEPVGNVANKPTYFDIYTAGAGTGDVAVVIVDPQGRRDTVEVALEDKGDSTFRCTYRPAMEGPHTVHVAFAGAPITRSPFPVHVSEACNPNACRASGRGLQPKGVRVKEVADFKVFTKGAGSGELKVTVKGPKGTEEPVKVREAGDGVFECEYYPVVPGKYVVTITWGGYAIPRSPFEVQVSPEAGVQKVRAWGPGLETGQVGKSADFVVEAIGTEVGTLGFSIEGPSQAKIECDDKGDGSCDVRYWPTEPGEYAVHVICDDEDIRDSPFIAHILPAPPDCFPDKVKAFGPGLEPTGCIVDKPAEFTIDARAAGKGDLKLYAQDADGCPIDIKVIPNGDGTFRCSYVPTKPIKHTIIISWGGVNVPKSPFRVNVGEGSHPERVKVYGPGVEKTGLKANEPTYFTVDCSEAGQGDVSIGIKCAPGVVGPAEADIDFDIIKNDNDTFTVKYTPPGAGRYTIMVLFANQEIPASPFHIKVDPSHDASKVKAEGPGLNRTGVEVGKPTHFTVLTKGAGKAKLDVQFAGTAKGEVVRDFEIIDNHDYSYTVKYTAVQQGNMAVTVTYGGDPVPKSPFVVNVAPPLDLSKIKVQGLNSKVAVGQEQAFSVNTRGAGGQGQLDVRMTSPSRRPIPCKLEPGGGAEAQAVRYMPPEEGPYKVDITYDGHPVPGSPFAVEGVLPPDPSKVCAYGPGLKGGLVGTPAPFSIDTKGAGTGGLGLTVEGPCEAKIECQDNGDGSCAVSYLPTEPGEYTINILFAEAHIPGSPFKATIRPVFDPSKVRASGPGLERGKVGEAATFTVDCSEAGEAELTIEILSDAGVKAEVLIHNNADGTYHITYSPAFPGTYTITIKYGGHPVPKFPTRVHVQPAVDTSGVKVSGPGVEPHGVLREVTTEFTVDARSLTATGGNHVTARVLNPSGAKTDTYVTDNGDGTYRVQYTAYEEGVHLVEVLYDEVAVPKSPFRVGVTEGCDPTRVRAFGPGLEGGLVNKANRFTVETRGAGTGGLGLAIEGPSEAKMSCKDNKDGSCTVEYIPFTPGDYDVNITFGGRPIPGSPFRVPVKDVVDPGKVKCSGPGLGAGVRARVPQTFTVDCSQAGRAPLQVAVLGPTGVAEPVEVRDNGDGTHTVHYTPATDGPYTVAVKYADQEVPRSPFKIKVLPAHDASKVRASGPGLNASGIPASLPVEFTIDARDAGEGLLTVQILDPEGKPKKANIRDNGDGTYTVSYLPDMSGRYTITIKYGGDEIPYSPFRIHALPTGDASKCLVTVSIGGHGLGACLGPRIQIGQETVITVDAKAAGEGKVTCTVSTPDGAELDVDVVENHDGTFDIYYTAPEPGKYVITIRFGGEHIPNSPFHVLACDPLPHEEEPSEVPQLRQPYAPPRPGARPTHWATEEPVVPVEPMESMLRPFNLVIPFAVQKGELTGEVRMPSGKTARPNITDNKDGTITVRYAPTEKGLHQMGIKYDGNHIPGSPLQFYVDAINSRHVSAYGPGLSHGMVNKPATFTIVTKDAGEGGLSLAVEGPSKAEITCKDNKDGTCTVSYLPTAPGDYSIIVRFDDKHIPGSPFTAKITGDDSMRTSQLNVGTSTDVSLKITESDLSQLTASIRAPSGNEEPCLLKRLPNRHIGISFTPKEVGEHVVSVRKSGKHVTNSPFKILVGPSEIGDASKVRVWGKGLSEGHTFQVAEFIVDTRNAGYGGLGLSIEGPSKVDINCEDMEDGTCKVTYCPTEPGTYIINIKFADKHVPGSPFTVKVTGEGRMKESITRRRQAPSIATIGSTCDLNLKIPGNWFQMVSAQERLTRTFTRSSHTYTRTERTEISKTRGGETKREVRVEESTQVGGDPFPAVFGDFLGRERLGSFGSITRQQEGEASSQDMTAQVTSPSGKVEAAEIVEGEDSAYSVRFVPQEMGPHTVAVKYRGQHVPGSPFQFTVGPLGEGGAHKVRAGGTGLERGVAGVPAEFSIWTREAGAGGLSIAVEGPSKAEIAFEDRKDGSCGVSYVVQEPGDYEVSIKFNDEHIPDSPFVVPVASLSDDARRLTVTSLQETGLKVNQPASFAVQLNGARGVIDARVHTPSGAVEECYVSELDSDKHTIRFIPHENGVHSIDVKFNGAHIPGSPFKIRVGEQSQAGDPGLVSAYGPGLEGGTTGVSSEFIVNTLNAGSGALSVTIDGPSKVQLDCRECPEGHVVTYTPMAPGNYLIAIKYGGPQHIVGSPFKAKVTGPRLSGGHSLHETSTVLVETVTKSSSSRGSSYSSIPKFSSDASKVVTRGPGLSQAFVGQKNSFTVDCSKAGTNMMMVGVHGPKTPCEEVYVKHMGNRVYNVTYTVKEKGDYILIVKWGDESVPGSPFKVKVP
Chain of SW480 colon carcinoma cells lysate proteins (Homo sapiens, UniProt Q9NZI8) (Q9NZI8 whole entry): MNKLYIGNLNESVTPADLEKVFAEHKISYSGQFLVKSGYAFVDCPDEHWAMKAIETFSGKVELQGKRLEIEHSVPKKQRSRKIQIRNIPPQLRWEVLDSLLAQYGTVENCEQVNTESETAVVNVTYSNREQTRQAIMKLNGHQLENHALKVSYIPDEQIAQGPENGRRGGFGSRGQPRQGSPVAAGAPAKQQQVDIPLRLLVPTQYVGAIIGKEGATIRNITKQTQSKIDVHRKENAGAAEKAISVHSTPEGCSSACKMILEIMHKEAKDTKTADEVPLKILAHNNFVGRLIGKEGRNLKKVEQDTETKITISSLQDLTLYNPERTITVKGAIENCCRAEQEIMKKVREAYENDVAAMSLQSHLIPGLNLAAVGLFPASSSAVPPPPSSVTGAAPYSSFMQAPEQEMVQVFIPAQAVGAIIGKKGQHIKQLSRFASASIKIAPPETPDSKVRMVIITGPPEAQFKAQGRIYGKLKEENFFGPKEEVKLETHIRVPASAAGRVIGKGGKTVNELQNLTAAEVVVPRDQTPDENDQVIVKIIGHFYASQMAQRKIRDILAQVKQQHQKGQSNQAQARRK
Chain of SW480 colon carcinoma cells lysate proteins (Homo sapiens, UniProt O00571) (O00571 whole entry): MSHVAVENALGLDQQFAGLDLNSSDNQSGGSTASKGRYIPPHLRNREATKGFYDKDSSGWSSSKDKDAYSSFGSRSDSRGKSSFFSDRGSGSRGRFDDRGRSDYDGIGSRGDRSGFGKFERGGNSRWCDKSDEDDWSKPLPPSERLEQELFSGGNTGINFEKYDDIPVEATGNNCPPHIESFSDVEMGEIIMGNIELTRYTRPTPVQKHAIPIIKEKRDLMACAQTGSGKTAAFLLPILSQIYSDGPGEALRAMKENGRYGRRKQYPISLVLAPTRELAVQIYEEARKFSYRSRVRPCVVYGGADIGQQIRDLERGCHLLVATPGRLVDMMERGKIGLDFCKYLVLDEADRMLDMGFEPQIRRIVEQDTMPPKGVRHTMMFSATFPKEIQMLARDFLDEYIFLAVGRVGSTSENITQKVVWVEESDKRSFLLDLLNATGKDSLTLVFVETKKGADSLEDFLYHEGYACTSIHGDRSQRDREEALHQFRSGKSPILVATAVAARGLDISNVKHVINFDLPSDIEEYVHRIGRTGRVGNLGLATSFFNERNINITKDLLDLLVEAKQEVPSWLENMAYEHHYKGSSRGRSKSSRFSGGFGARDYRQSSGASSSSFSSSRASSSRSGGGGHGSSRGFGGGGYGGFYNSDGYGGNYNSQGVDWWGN
Chain of SW480 colon carcinoma cells lysate proteins (Homo sapiens, UniProt P22626) (P22626 whole entry): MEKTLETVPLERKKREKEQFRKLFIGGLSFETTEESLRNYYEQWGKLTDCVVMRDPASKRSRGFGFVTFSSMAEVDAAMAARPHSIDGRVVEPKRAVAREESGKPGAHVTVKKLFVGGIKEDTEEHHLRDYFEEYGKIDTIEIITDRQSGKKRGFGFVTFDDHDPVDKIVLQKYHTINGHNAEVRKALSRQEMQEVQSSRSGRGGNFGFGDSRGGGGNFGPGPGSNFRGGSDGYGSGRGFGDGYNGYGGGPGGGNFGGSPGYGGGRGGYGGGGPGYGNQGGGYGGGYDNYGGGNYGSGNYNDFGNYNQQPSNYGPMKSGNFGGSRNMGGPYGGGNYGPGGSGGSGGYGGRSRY

C[C@H](Oc1cc(-c2cnn(C3CCNCC3)c2)cnc1N)c1c(Cl)ccc(F)c1Cl [(5)-crizotinib]
AvgP [1]: 0 | SC.Exp. 1-1 [1]: 1 | SC.Exp. 1-2 [1]: 0 | SC.Exp. 2-1 [1]: 0 | SC.Exp. 2-2 [1]: 0 | SC.Exp. Sum [1]: 1 | AvgP [2]: 0.1791 | SC.Exp. 1-1 [2]: 0 | SC.Exp. 1-2 [2]: 2 | SC.Exp. 2-1 [2]: 0 | SC.Exp. 2-2 [2]: 0 | Sum (SC.Exp.) [2]: 2 | AvgP [3]: 0 | SC.Exp. 1-1 [3]: 4 | SC.Exp. 1-2 [3]: 8 | SC.Exp. 2-1 [3]: 4 | SC.Exp. 2-2 [3]: 6 | SC.Exp. Sum [3]: 22 | AvgP [4]: 0.2944 | SC.Exp. 1-1 [4]: 2 | SC.Exp. 1-2 [4]: 2 | SC.Exp. 2-1 [4]: 0 | SC.Exp. 2-2 [4]: 2 | Sum (SC.Exp.) [4]: 6 | AvgP [5]: 0.3362 | SC.Exp. 1-1 [5]: 0 | SC.Exp. 1-2 [5]: 1 | SC.Exp. 2-1 [5]: 2 | SC.Exp. 2-2 [5]: 2 | Sum (SC.Exp.) [5]: 5 | AvgP [6]: 0.2355 | SC.Exp. 1-1 [6]: 2 | SC.Exp. 1-2 [6]: 2 | SC.Exp. 2-1 [6]: 0 | SC.Exp. 2-2 [6]: 0 | Sum (SC.Exp.) [6]: 4 | AvgP [7]: 0 | SC.Exp. 1-1 [7]: 0 | SC.Exp. 1-2 [7]: 0 | SC.Exp. 2-1 [7]: 0 | SC.Exp. 2-2 [7]: 1 | SC.Exp. Sum [7]: 1 | AvgP [8]: 0.4547 | SC.Exp. 1-1 [8]: 6 | SC.Exp. 1-2 [8]: 7 | SC.Exp. 2-1 [8]: 0 | SC.Exp. 2-2 [8]: 0 | Sum (SC.Exp.) [8]: 13 | AvgP [9]: 0.7764 | SC.Exp. 1-1 [9]: 2 | SC.Exp. 1-2 [9]: 2 | SC.Exp. 2-1 [9]: 1 | SC.Exp. 2-2 [9]: 2 | Sum (SC.Exp.) [9]: 7 | AvgP [10]: 0 | SC.Exp. 1-1 [10]: 5 | SC.Exp. 1-2 [10]: 4 | SC.Exp. 2-1 [10]: 2 | SC.Exp. 2-2 [10]: 2 | SC.Exp. Sum [10]: 13
